The source made the active and inactive calls.
Tests used:
[1] = test system: HEK293; assay: EBV LMP1 TES2 canonical NF-kB signalling blockers – cell-based, HEK293, luciferase, cherry-pick, dose response (AID 588343); type: functional; settings: Homo sapiens
[2] = reduction of Shn3 3'UTR-driven luciferase in osteoblasts – cell-based, Clone20 osteoblasts, firefly luciferase, cherry-picked, dose response (AID 624132); type: functional;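 note: firefly luciferase luminescence from reporter carrying the Shn3 3'UTR in osteoblasts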
[3] = loss of viability in HepG2 cells – cell-based, CellTiter-Glo, cherry-picked, cytotoxicity control for Shn3 inhibitor project, dose response (AID 624134); type: functional
[4] = non-specific 3'UTR reporter inhibition in Clone20-Shn3RL – cell-based, Renilla luciferase, cherry-picked, counter-screen for Shn3 inhibitor project, dose response (AID 624133); type: functional
[5] = test system: P388/ADR; assay: cells; type: functional; settings: Mus musculus
[6] = test system: SN12K1; assay: cells; type: functional; settings: Homo sapiens
[7] = test system: P388; assay: cells; type: functional; settings: Mus musculus
[8] = biological target: Large T antigen (Simian virus 40, UniProt P03070); type: functional, Betapolyomavirus macacae;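 note: Confirmatory-stage PubChem screen for compounds that inhibit SV40 T antigen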
Large T antigen, sequence (P03070 whole entry): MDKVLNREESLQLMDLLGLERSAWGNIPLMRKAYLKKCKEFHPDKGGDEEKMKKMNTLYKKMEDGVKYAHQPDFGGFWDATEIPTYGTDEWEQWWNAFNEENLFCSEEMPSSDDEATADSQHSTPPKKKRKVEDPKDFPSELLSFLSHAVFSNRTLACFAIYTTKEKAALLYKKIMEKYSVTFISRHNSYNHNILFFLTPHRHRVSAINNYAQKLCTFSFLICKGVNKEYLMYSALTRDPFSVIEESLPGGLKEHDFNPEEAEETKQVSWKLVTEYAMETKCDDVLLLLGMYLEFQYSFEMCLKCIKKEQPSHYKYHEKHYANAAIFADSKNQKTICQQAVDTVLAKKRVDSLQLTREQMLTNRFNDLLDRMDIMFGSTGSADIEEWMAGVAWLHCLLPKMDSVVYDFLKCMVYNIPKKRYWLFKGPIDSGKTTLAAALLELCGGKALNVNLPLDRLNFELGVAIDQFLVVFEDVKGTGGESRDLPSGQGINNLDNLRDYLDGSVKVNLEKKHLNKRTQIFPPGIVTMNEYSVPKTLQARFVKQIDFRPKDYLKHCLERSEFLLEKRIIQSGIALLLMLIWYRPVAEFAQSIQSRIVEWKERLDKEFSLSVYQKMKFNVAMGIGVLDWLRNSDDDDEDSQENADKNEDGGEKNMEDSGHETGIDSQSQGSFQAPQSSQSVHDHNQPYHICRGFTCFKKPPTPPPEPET

[9] = biological target: Induced myeloid leukemia cell differentiation protein Mcl-1 (Homo sapiens, UniProt Q07820); type: functional
Induced myeloid leukemia cell differentiation protein Mcl-1, sequence (Q07820 whole entry): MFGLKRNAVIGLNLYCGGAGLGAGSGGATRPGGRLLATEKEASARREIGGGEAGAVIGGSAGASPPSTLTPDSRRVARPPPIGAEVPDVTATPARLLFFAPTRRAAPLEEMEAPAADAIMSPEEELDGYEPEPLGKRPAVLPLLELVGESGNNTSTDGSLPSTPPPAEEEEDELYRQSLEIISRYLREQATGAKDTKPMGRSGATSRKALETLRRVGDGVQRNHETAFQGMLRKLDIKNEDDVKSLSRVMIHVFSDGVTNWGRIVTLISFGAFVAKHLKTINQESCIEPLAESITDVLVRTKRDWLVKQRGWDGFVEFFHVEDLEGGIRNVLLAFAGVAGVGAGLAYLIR

[10] = cells; type: functional, cell-based
[11] = Trypanosoma cruzi growth suppression in host cells – NIH3T3 host cells, beta-gal luminescence, confirmation (AID 2044); type: functional, cell-based;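 note: intracellular parasites grown in NIH/3T3 mouse fibroblasts as host cells; luminescent beta-galactosidase reporter signal from transgenic T. cruzi replicating inside host cells; inhibitors lower the luminescence signal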
[12] = cells; type: functional, cell-based; remark: listed apart in the source
[13] = NIH3T3 cell viability loss – ATP luminescence, mouse fibroblasts, counter-screen, dose response (AID 2010); type: functional, cell-based;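 note: cells exposed to compound for about 90 hours before reading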
[14] = biological target: T1, Heat shock factor protein 1 (Mus musculus, UniProt P38532); assay: enhancement of HSF1-driven luciferase signal – cell-based, NIH3T3, luminescence, dose retest, confirmation (AID 435004); type: functional;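 note: stress induced by proteasome inhibitor MG132 added 30 min after compound; luciferase reporter driven by HSF1 response element in NIH3T3 cells; actives raise luminescence as potentiators of the MG132 stress response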
T1 sequence (P38532 whole entry): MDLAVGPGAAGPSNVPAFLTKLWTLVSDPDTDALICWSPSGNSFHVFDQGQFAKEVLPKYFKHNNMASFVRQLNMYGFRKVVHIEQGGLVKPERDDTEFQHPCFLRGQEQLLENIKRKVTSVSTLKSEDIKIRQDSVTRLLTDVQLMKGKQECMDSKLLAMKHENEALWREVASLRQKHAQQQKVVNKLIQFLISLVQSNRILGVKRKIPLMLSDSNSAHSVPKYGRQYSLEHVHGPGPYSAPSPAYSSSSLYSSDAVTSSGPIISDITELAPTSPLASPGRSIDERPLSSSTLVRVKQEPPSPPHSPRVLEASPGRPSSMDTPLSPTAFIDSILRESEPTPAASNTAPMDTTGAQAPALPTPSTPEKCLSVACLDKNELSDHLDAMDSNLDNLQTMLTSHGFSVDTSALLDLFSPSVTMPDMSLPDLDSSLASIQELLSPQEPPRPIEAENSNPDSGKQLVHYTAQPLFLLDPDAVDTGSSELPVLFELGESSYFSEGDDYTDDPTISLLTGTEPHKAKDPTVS

[15] = test system: INS1; assay: INS-1E survival protection against cytokine death – cell-based, luminescence, retest, dose response (AID 449756); type: functional; settings: Rattus norvegicus;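 note: cell death triggered by IL-1 beta plus TNF-alpha plus IFN-gamma mixture; protective hits raise ATP signal compared with cytokine alone wells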

SMILES	GI50 [5]	GI50 [6]	GI50 [7]	other results
Cc1ccc(C(=O)Nc2sc(Cc3ccc4c(c3)OCO4)c(C)c2C(N)=O)cc1	–	–	–	AC50 [1]: 130 µM (active)
CC(C)C1C(=O)N(Cc2cn(CCC3OCCO3)nn2)CCS(=O)(=O)N1Cc1ccc(-c2ccc(Cl)c(Cl)c2)cc1 (stereo unspecified)	–	–	–	AC50 [2]: 1.28 µM (active); AC50 [3]: > 70 µM (inactive); AC50 [4]: 3.36 µM (active)
CCOC(=O)CNC(=O)N(CC)C12CC3CC(CC(C3)C1)C2	131 µM (inactive)	109 µM (inactive)	79.1 µM (inactive)	–
O=C1c2cccc3cc4ccccc4c(c23)C(=O)N1CCNCCN1C(=O)c2cccc3cc4ccccc4c(c23)C1=O	0.16 µM (active)	1.91 µM (inactive)	0.27 µM (active)	–
NC(=S)N/N=C/c1ccc(OC(=O)COc2ccccc2Cl)cn1	4.97 µM (inactive)	9.29 µM (inactive)	3.31 µM (inactive)	–
CSc1sc(=S)sc1SC	> 100 µM (inactive)	> 63.1 µM (inactive)	60.8 µM (inactive)	–
C=C(NC(=O)C(=C)NC(=O)c1csc(C2=NC3c4csc(n4)C4NC(=O)c5csc(n5)C(C(C)(O)C(C)O)NC(=O)C5CSC(=N5)/C(=C/C)NC(=O)C(C(C)O)NC(=O)c5csc(n5)C3(CC2)NC(=O)C(C)NC(=O)C(=C)NC(=O)C(C)NC(=O)C(C(C)CC)NC2C=Cc3c(C(C)O)cc(nc3C2O)C(=O)OC4C)n1)C(N)=O (stereo unspecified)	1.27 µM (inactive)	0.968 µM (active)	0.0407 µM (active)	–
C=C1C(=O)OC2CC(C)C3C4OC4C(O)C3(C)C(O)C12 (stereo unspecified)	8.85 µM (inactive)	24.8 µM (inactive)	8.02 µM (inactive)	–
CCC1OC(=O)C(C)C(OC2CC(C)(O)C(O)C(C)O2)C(C)C(O)C(C)(O)CC(C)C(=O)C(C)C(O)C1C (stereo unspecified)	> 300 µM (inactive)	> 300 µM (inactive)	> 300 µM (inactive)	–
COC(=O)C1=CC[C@@H]2C(C(=O)O)=CO[C@@H](OC3OC(CO)C(O)C(O)C3O)[C@H]12 (stereo partly specified)	> 139 µM (inactive)	> 300 µM (inactive)	> 300 µM (inactive)	–
CCC/C=C/C=C\C(=O)O[C@@H]1[C@@H](C)[C@]2(O)[C@@H]3C=C(C)C(=O)[C@H]3CC(COC(C)=O)=C[C@H]2[C@@H]2C(C)(C)[C@]12OC(C)=O	1.79 µM (inactive)	1.98 µM (inactive)	1.12 µM (inactive)	–
COc1cc(/C=N/NC(=O)c2nnn(-c3nonc3N)c2-c2cccs2)ccc1O	–	–	–	IC50 [8]: 19.4 µM (active)
COc1cc(/C=N/NC(=O)C2COc3ccccc3O2)ccc1O (stereo unspecified)	–	–	–	IC50 [8]: 8.24 µM (active)
O=C(O)c1cc(N/N=C/c2cccc3ccccc23)ccc1Cl	–	–	–	IC50 [8]: > 100 µM (active)
Oc1ccc(/C=N/Nc2nc(-c3cccnc3)nc3ccccc23)c(O)c1	–	–	–	IC50 [9]: 52.8 µM (not active)
Cc1cccc(/C=N\NC(=O)c2ccc(Cl)cc2)c1O	–	–	–	EC50 [10]: > 350 µM (not active); EC50 [11]: 0.877 µM (active); EC50 [12]: 6.37 µM (active); EC50 [13]: 9.57 µM (active); EC50 [14]: 91 µM (active); AC50 [15]: 0.597 µM (active)

— ChEMBL document CHEMBL1201862, “PubChem BioAssay data set” (2004)
